Data as given in ChEMBL document CHEMBL1135252, “Design and synthesis of antiangiogenic/heparin-binding arginine dendrimer mimicking the surface of endostatin” (Bioorg Med Chem Lett, 2002).

Assays:
Gallus gallus [1] = species: Gallus gallus; test: Antiangiogenic activity in chicken embryo chorioallantoic membrane assay, at 100 ug/CAM was determined; assay type: functional, tissue-based
Gallus gallus [2] = species: Gallus gallus; test: Antiangiogenic activity in chicken embryo chorioallantoic membrane assay, at 10 ug/CAM was determined; assay type: functional, tissue-based
Rattus norvegicus = species: Rattus norvegicus; test: Salt concentration required for release from the heparin-agarose column was evaluated to determine the heparin- binding activity to inhibit the growth of rat lung endothelial(RLE) cells

- NaCl concentration (Rattus norvegicus): 1.2 M
Structure (SMILES): N=C(N)NCCCC(N)C(=O)NC(CCCNC(=N)N)C(=O)NCCCCC(NC(=O)C(CCCNC(=N)N)NC(=O)C(N)CCCNC(=N)N)C(=O)NCCCCC(NC(=O)C(CCCCNC(=O)C(CCCNC(=N)N)NC(=O)C(N)CCCNC(=N)N)NC(=O)C(CCCNC(=N)N)NC(=O)C(N)CCCNC(=N)N)C(=O)NCCCC(NC(=O)NCC(=O)O)NC(=O)C(CCCCNC(=O)C(CCCCNC(=O)C(CCCNC(=N)N)NC(=O)C(N)CCCNC(=N)N)NC(=O)C(CCCNC(=N)N)NC(=O)C(N)CCCNC(=N)N)NC(=O)C(CCCCNC(=O)C(CCCNC(=N)N)NC(=O)C(N)CCCNC(=N)N)NC(=O)C(CCCNC(=N)N)NC(=O)C(N)CCCNC(=N)N (stereo not drawn)
- inhibition (Gallus gallus [1]): 70%
- inhibition (Gallus gallus [2]): 45.4%
